{"source": "patent US20180289692A1", "about": "“TLR MODULATORS AND METHODS OF USE” (CELGENE CORPORATION, priority 2015, published 2018)", "key": {"[1]": {"system": "human pDCs", "assay": "Intracellular IL-10, TGF-β1 and IDO expression in CCR6+CD123+ human pDCs by FACS", "type": "cell-based", "conditions": "24 hrs, FIG. 2A", "source_text": "To evaluate intracellular IL-10, TGFβ 1 and IDO expression in human pDCs, the cells were first stained with PECY-7-labeled anti-human CCR6 mAb (BD Biosciences), PerCP-Cy5.5 labeled anti-human CD123 mAb (BD Biosciences). Stained cells were then fixed and permeabilized using a Cytofix/Cytoperm kit (BD Biosciences) according to the manufacturer's instructions and stained with PE-labeled anti-human IDO (Biolegend), APC-labeled anti-human IL-10 mAb and FITC-labeled anti-human TGF-β1 (BD Biosciences), or isotype-matched control mAbs. The stained cells were acquired by FACSCanto using the FACSDiva software. FACS analysis was performed using FlowJo software. Single, viable cells in the CCR6+CD123+ pDC gates were analyzed. The flow cytometric results are expressed as the percentage and MFI of IL-10-, TGF-β1- or IDO-expressing cells in each gate. Results are expressed as the mean±SEM of cells quantified.\nIL10 was alternatively measured in cellular supernatants by ELISA using standard protocols."}, "[2]": {"system": "human PBMCs", "assay": "Cytokine production by human PBMCs treated with ODNs, MagPix Multi-Plex", "type": "cell-based", "parameters": "key to IL-6, IL-12: (↑) indicates a weak but detectable activity; (↑↑) and (↑↑↑) indicate different levels of moderate activities; (↑↑) and (↑↑↑) indicate different levels of moderate activities; (↑↑↑↑) indicates a strong activity; (−) indicates no detectable activity", "conditions": "for IFN-γ / IL-1β / IL-6 / IL-10 / IL-12p40 / IP10 / TNF-α: human PBMC, 24 hrs", "experimental": "PBMC from 3 donors were isolated from Buffy Coat (Blood Center of NY). The cells were washed with PBS and re-suspended in RPMI-1640 Media with 5% Human AB Serum, 1% Pen/Strep and 2 mM L-glutamine. The cells were then plated in 96-well plates at 250,000 cells/well. […] After 24 hrs, the supernatant was harvested and tested for cytokine production using MagPix Multi-Plex Technology. The following cytokines were tested: IL-6, IL-10, IL-12p40, IFN-α, IFN-γ, IP-10, IL-1β and TNF-α."}, "[3]": {"system": "canonical NF-κB promoter reporter", "assay": "Canonical NF-κB promoter reporter construct in RAW264.7 macrophage cells (FIG. 10)", "type": "cell-based, mouse", "conditions": "24 hrs", "experimental": "Mouse RAW264.7 macrophage cells containing a reporter construct driven by a canonical NF-κB promoter were plated in 96-well plates at 50,000 cells/well. […] The supernatant was harvested and tested for optical density."}, "[4]": {"system": "mouse macrophages", "assay": "TNFα and IL-10 production in mouse macrophages (Raw Blue cells), MagPix", "type": "cell-based", "conditions": "24 hrs", "experimental": "Mouse Raw Blue Reporter Cells (Invivogen) were plated in 96-well plates at 50,000 cells/well in DMEM Media supplemented with 10% FBS, 2 mM L-glutamine, 1% Pen/Strep, […] Normacin. […] The supernatant was harvested and tested for TNFα and IL-10 production using MagPix Multi-Plex technology."}, "[5]": {"system": "human PBMCs", "assay": "IL-1β secretion from human PBMCs by ELISA (inflammasome activation)", "type": "cell-based", "conditions": "24 hours, FIG. 15"}, "[6]": {"target": "T1, TLR9 (Homo sapiens, UniProt Q9NR96)", "T1 construct": "expressed in transfected cells; host or cells: TLR9 expressing HEK293 reporter cells with a human NF-κB reporter construct", "T1 sequence (Q9NR96 26-1032)": "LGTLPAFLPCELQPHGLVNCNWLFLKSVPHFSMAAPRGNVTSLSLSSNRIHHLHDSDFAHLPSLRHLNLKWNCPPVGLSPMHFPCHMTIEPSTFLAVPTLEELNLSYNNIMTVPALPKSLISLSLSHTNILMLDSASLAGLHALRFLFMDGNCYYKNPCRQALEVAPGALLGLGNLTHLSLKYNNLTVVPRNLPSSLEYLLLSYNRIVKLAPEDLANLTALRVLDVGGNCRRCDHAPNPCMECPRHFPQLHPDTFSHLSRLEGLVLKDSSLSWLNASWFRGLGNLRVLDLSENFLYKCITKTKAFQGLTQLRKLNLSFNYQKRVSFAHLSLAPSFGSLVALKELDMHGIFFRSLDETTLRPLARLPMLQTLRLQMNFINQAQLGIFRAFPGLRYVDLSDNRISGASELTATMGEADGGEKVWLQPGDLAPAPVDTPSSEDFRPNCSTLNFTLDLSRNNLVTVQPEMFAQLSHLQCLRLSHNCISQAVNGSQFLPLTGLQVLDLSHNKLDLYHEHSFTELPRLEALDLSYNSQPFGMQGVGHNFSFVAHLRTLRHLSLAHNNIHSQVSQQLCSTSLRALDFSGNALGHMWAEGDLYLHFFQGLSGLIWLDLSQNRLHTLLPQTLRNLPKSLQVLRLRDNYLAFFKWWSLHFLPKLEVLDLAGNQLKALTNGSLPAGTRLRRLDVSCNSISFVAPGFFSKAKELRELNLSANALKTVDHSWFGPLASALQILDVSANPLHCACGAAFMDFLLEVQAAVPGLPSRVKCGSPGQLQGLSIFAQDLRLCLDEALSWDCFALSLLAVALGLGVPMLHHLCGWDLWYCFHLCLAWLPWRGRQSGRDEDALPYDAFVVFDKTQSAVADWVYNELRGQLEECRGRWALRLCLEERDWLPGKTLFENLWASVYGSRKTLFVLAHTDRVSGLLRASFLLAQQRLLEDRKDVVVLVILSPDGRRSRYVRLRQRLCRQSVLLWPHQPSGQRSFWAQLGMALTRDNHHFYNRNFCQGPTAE", "assay": "NF-κB reporter gene in recombinant TLR9-expressing HEK293 cells", "type": "cell-based", "experimental": "FIGS. 16A-B show results of experiments in which recombinant TLR-expressing HEK293 cells carrying an NF-κB reporter gene were incubated with COMPOUND(I), ODN150, ODN2006, or ODN7040 for 48 hours at the indicated concentrations."}, "[7]": {"system": "purified human pDCs", "assay": "pDC differentiation, differentiation markers CD86, CD83, CCR6, CCR7 by flow cytometry", "type": "cell-based", "parameters": "key: (↑) indicates a weak but detectable activity; (↑↑) and (↑↑↑) indicate different levels of moderate activities; (↑↑) and (↑↑↑) indicate different levels of moderate activities; (↑↑↑↑) indicates a strong activity; (−) indicates no detectable activity", "conditions": "relative strength, Table 6"}, "[8]": {"system": "ulcerative colitis patients", "conditions": "clinical studies, subset of UC patients; cited from earlier work"}, "[9]": {"conditions": "PBMC, relative strength, Table 6"}}, "note": "Oligonucleotides are written 5' to 3', each unit as a sugar letter and its base; * is a phosphorothioate linkage, no mark a phosphodiester; rarer units and linkages stand in square brackets, end groups in braces. Plain capitals give the bases only. d = 2'-deoxy (DNA)", "data": [{"substance": "ODN150: 5′-G*G*A*ACAGTTCGTCCAT*G*G*C-3′, PO except * = PS; antisense to p65 of NF-kB mRNA; tested clinically for ulcerative colitis (DNA dG*dG*dA*dAdCdAdGdTdTdCdGdTdCdCdAdT*dG*dG*dC)", "values": [{"measurement": "TGF-β1 protein induction", "setting": "[1]", "result": "can induce"}, {"measurement": "IL-6, IL-12", "setting": "[2]; [9]", "result": "↑"}, {"measurement": "TNFα, IFNγ", "setting": "[2]; [9]", "result": "—/↑"}, {"measurement": "IFNα secretion from PBMCs", "setting": "[2]; any tested concentration between 0.01 μM and 10 μM, FIG. 25", "result": "not found to induce"}, {"measurement": "IFN-γ", "setting": "[2]; high-dose ODN 10 μM", "result": 0.2, "unit": "pg/mL"}, {"measurement": "IL-1β", "setting": "[2]; high-dose ODN 10 μM", "result": 0.6, "unit": "pg/mL"}, {"measurement": "IL-6", "setting": "[2]; high-dose ODN 10 μM", "result": 11.8, "unit": "fold change"}, {"measurement": "IL-10", "setting": "[2]; high-dose ODN 10 μM", "result": 1.6, "unit": "fold change"}, {"measurement": "IL-12p40", "setting": "[2]; high-dose ODN 10 μM", "result": 0, "unit": "pg/mL"}, {"measurement": "IP10", "setting": "[2]; high-dose ODN 10 μM", "result": 8.1, "unit": "fold change"}, {"measurement": "TNF-α", "setting": "[2]; high-dose ODN 10 μM", "result": 2, "unit": "fold change"}, {"measurement": "IFN-γ", "setting": "[2]; low-dose ODN 0.1 μM", "result": 0.2, "unit": "pg/mL"}, {"measurement": "IL-1β", "setting": "[2]; low-dose ODN 0.1 μM", "result": 0.2, "unit": "pg/mL"}, {"measurement": "IL-6", "setting": "[2]; low-dose ODN 0.1 μM", "result": 1.2, "unit": "fold change"}, {"measurement": "IL-10", "setting": "[2]; low-dose ODN 0.1 μM", "result": 0.9, "unit": "fold change"}, {"measurement": "IL-12p40", "setting": "[2]; low-dose ODN 0.1 μM", "result": 0, "unit": "pg/mL"}, {"measurement": "IP10", "setting": "[2]; low-dose ODN 0.1 μM", "result": 1.5, "unit": "fold change"}, {"measurement": "TNF-α", "setting": "[2]; low-dose ODN 0.1 μM", "result": 1.2, "unit": "fold change"}, {"measurement": "activation of the NF-κB construct", "setting": "[3]; 0.1-100 μM", "result": "Moderate activation"}, {"measurement": "ODN concentration at which activation of the NF-κB construct was observed", "setting": "[3]", "result": 100, "unit": "µM"}, {"measurement": "TNFα protein expression", "setting": "[4]; FIG. 12, COMPOUND (I) up to 10 μM", "result": "induce"}, {"measurement": "IL-10 protein expression", "setting": "[4]; FIG. 13, COMPOUND (I) up to 10 μM", "result": "induce"}, {"measurement": "IL-1β induction", "setting": "[5]", "result": "did not induce"}, {"measurement": "TLR pathway activation (NF-κB)", "setting": "[6]; Reporter Cell, relative strength, Table 6", "result": "↑ ↑"}, {"measurement": "NF-κB reporter gene activation", "setting": "[6]; TLR9-expressing HEK293 cells, 48 hours, FIGS. 16A-B", "result": "concentration-dependent NF-kB induction"}, {"measurement": "pDC differentiation", "setting": "[7]", "result": "↑"}, {"measurement": "clinical effect in ulcerative colitis", "setting": "[8]", "result": "some moderate beneficial effects"}]}]}
